The record followed here is US8003660B2, “Modulators of muscarinic receptors” (Vertex Pharmaceuticals Incorporated, priority 2006, dated 2011).

Holding throughout (format): cell-based
The target in one experiment is T1, M1 muscarinic receptor (Homo sapiens, UniProt P11229).
T1 construct: expressed in transfected cells; host or cells: CHO (M1-CHO)
T1 sequence (P11229 1-460): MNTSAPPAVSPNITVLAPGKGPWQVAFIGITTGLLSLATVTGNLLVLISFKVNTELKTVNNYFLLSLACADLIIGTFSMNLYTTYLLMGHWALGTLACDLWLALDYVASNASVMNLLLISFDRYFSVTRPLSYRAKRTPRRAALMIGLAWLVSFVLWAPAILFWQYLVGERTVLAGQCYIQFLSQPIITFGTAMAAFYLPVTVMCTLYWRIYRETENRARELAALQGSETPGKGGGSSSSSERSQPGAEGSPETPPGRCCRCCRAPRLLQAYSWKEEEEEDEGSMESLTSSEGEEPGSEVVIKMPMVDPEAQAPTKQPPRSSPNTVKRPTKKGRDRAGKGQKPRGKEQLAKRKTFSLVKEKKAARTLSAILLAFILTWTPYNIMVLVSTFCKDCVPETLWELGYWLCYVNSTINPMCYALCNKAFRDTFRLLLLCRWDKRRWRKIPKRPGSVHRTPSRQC
Kind of experiment: Functional mobilization of intracellular calcium (FLIPR) in CHO cells expressing M1. The note with it: for M1 Activity: CHO cells expressing M1, FLIPR calcium assay; for Emax: CHO, 100% efficacy = maximum response obtained with the Carbachol control. Summed up: (§1)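 Recombinant CHO cells loaded with Fluo-3 AM or Calcium 3 dye in pH 7.4 buffer containing 1 mM probenecid, with 0.5% final DMSO. For agonism, compound is added directly. For inhibition, it is preincubated 15 min, or co-applied, before carbachol at EC80. FLIPR fluorescence (ex 488, em 540 nm) is recorded for 60 s.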
A general note: A change in cytosolic calcium serves as a functional read-out for many receptors and channels.

The next experiment deals with T2, M4 muscarinic receptor (Homo sapiens, UniProt P08173).
T2 construct: expressed in transfected cells; host or cells: CHO (M4-CHO)
T2 sequence (P08173 1-479): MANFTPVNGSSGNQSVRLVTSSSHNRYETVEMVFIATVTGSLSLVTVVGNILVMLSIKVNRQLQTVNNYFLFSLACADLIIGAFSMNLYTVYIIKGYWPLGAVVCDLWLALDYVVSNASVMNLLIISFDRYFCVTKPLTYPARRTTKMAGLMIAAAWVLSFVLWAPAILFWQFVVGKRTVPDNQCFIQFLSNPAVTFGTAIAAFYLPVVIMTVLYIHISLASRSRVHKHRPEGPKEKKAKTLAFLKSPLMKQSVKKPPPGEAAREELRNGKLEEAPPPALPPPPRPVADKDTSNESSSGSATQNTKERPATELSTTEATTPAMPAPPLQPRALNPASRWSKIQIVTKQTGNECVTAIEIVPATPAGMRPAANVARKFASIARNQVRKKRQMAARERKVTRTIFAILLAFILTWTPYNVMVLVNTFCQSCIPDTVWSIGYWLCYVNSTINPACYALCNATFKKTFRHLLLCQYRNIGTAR
Briefly: Functional mobilization of intracellular calcium (FLIPR) in CHO cells expressing M4. The following applies: for M4 Activity: CHO cells expressing M4, FLIPR calcium assay; for Emax: CHO, 100% efficacy = maximum response obtained with the Carbachol control. Summed up:
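Calcium flux is read on FLIPR over 60 sec at 488/540 nm in muscarinic-receptor CHO lines. Antagonist mode adds carbachol at EC80 after 15 min compound preincubation or with simultaneous co-application. Agonist mode adds compound alone. Cells carry Fluo-3 or Calcium 3 dye in probenecid-containing pH 7.4 buffer, 0.5% DMSO final.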

Another experiment deals with T3, M2 muscarinic receptor (Homo sapiens, UniProt P08172).
T3 construct: expressed in transfected cells; host or cells: CHO (M2-CHO)
T3 sequence (P08172 1-466): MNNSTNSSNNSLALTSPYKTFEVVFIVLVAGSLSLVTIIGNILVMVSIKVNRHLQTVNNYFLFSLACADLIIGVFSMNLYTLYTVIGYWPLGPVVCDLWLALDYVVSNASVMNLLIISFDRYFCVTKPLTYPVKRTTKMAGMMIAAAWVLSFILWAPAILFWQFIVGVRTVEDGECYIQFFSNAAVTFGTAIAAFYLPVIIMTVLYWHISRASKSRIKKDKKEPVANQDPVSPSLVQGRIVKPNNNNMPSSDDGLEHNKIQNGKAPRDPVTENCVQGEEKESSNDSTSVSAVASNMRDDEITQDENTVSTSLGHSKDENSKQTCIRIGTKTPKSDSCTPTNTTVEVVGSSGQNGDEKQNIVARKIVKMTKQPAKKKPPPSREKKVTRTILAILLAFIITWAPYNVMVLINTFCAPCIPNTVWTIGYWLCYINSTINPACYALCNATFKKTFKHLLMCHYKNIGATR
Kind of experiment: Functional mobilization of intracellular calcium (FLIPR) in CHO cells expressing M2. The following applies: for M2 Activity: CHO cells expressing M2, FLIPR calcium assay; for Emax: CHO, 100% efficacy = maximum response obtained with the Carbachol control. Summed up:
as §1

The target of another experiment is T4, M3 muscarinic receptor (Homo sapiens, UniProt P20309).
T4 construct: expressed in transfected cells; host or cells: CHO (M3-CHO)
T4 sequence (P20309 whole entry): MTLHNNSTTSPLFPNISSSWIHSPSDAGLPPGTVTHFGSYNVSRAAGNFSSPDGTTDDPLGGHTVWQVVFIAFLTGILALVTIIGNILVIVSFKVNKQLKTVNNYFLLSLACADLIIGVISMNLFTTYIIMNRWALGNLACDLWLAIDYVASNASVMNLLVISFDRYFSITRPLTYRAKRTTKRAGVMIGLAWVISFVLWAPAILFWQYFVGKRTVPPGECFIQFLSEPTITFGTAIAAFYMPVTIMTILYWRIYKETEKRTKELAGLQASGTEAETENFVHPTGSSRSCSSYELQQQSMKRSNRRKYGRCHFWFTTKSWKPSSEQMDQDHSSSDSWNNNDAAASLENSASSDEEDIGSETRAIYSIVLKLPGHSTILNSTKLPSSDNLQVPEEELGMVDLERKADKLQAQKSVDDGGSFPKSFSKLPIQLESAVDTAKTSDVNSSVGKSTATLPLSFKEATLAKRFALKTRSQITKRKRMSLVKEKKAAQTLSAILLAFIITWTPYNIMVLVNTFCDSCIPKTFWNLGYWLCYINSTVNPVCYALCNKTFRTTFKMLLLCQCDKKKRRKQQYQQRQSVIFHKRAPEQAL
Briefly: Functional mobilization of intracellular calcium (FLIPR) in CHO cells expressing M3. The following applies: for M3 Activity: CHO cells expressing M3, FLIPR calcium assay; for Emax: CHO, 100% efficacy = maximum response obtained with the Carbachol control. Summed up: as §1

The Emax is the maximal effect, on the per cent scale that the assay sets. `CC(=O)N[C@H]1CCC2(CCN(C(=O)OC(C)(C)C)CC2)c2ccccc21` [compound 272]: at M1 muscarinic receptor, the “M1 Activity” value is on record as “+ (activity was measured to be greater than 5.0 μM)” and the maximum response (Emax) was below 25%. Also, at M4 muscarinic receptor, the “M4 Activity” value is recorded as “+ (activity was measured to be greater than 5.0 μM)” and the Emax was below 25%. Moreover, on M2 muscarinic receptor, the “M2 Activity” value is “+ (activity was measured to be greater than 5.0 μM)” and the maximal effect (Emax) is below 25%. Moreover, on M3 muscarinic receptor, the “M3 Activity” value is listed as “+ (activity was measured to be greater than 5.0 μM)” and the Emax was below 25%.
In the case of `CC(=O)N[C@H]1CC2(CCN(CC(C)CCC=C(C)C)CC2)c2ccccc21` (stereo partly drawn) [compound 273], at M1 muscarinic receptor, the “M1 Activity” value is given as “+++ (activity was measured to be less than 2.0 μM)” and the Emax is 25 to 100%. At M4 muscarinic receptor, the “M4 Activity” value is listed as “+++ (activity was measured to be less than 2.0 μM)” and the Emax lay in the range of 25 to 100%. Besides, on M2 muscarinic receptor, the “M2 Activity” value is given as “+ (activity was measured to be greater than 5.0 μM)” and the Emax was below 25%. At M3 muscarinic receptor, the “M3 Activity” value was “+ (activity was measured to be greater than 5.0 μM)” and the Emax is below 25%.
For the compound `CC(C)(C)OC(=O)N1CCC2(CC1)C[C@H](NC(=O)N1CCCC1)c1ccccc12` [compound 276], on M1 muscarinic receptor, the “M1 Activity” value is given as “+ (activity was measured to be greater than 5.0 μM)” and the Emax was below 25%. Further, on M4 muscarinic receptor, the “M4 Activity” value was “+ (activity was measured to be greater than 5.0 μM)” and the Emax is below 25%. At M2 muscarinic receptor, the “M2 Activity” value is listed as “+ (activity was measured to be greater than 5.0 μM)” and the Emax was below 25%. On M3 muscarinic receptor, the “M3 Activity” value is on record as “+ (activity was measured to be greater than 5.0 μM)” and the maximal response (Emax) is below 25%.
As for `CC(=O)N[C@H]1CC2(CCN(CCC(C)C)CC2)c2ccccc21` [compound 277], on M1 muscarinic receptor, the “M1 Activity” value was “++ (activity was measured to be from 2.0 μM to 5.0 μM)” and the Emax fell in the range of 25 to 100%. At M4 muscarinic receptor, the “M4 Activity” value is on record as “+++ (activity was measured to be less than 2.0 μM)” and the Emax lay within 25 to 100%. Moreover, at M2 muscarinic receptor, the “M2 Activity” value is “+ (activity was measured to be greater than 5.0 μM)” and the Emax is below 25%. For the same compound, on M3 muscarinic receptor, the “M3 Activity” value is given as “+ (activity was measured to be greater than 5.0 μM)” and the maximal response (Emax) was below 25%.
For `CC(C)(C)OC(=O)N1CCC2(CC1)C[C@H](NC(=O)C1CC1)c1ccccc12` [compound 279], at M1 muscarinic receptor, the “M1 Activity” value was “+ (activity was measured to be greater than 5.0 μM)” and the Emax was below 25%. For the same compound, at M4 muscarinic receptor, the “M4 Activity” value is recorded as “+ (activity was measured to be greater than 5.0 μM)” and the maximum response (Emax) was below 25%. Further, on M2 muscarinic receptor, the “M2 Activity” value is recorded as “+ (activity was measured to be greater than 5.0 μM)” and the Emax is below 25%. On M3 muscarinic receptor, the “M3 Activity” value is “+ (activity was measured to be greater than 5.0 μM)” and the Emax was below 25%.
As for `CC(=O)N[C@@H]1CCC2(CCN(C(=O)OC(C)(C)C)CC2)c2ccccc21` [compound 280], at M1 muscarinic receptor, the “M1 Activity” value was “+ (activity was measured to be greater than 5.0 μM)” and the Emax was below 25%. Besides, at M4 muscarinic receptor, the “M4 Activity” value is “+ (activity was measured to be greater than 5.0 μM)” and the Emax is below 25%. Besides, on M2 muscarinic receptor, the “M2 Activity” value is reported as “+ (activity was measured to be greater than 5.0 μM)” and the Emax is below 25%. For the same compound, at M3 muscarinic receptor, the “M3 Activity” value was “+ (activity was measured to be greater than 5.0 μM)” and the Emax is below 25%.
For `CC(=O)N[C@H]1CC2(CCN(CCC(C)CCC=C(C)C)CC2)c2ccccc21` (stereo partly drawn) [compound 282], at M1 muscarinic receptor, the “M1 Activity” value was “+++ (activity was measured to be less than 2.0 μM)” and the Emax lay within 25 to 100%. For the same compound, on M4 muscarinic receptor, the “M4 Activity” value was “+ (activity was measured to be greater than 5.0 μM)” and the Emax was below 25%. Moreover, on M2 muscarinic receptor, the “M2 Activity” value was “+ (activity was measured to be greater than 5.0 μM)” and the maximal effect (Emax) is below 25%. On M3 muscarinic receptor, the “M3 Activity” value is given as “+ (activity was measured to be greater than 5.0 μM)” and the Emax is below 25%.
Consider `Cc1ccc2c(c1)C(=O)CC21CCN(CCC(C)(C)C)CC1` [compound 288], for which, at M1 muscarinic receptor, the “M1 Activity” value is “+ (activity was measured to be greater than 5.0 μM)” and the Emax was in the range of 25 to 100%. For the same compound, on M4 muscarinic receptor, the “M4 Activity” value is listed as “++ (activity was measured to be from 2.0 μM to 5.0 μM)” and the maximum response (Emax) fell in the range of 25 to 100%. For the same compound, at M2 muscarinic receptor, the “M2 Activity” value was “+ (activity was measured to be greater than 5.0 μM)” and the Emax was below 25%. On M3 muscarinic receptor, the “M3 Activity” value is recorded as “+ (activity was measured to be greater than 5.0 μM)” and the Emax is below 25%.
Regarding `CC(=O)N[C@H]1CC2(CCN(CC(=O)N(C)C)CC2)c2ccccc21` [compound 289], on M1 muscarinic receptor, the “M1 Activity” value is given as “+ (activity was measured to be greater than 5.0 μM)” and the Emax was below 25%. Besides, at M4 muscarinic receptor, the “M4 Activity” value is reported as “+ (activity was measured to be greater than 5.0 μM)” and the Emax was below 25%. At M2 muscarinic receptor, the “M2 Activity” value is recorded as “+ (activity was measured to be greater than 5.0 μM)” and the Emax was below 25%. For the same compound, at M3 muscarinic receptor, the “M3 Activity” value is on record as “+ (activity was measured to be greater than 5.0 μM)” and the Emax is below 25%.
`CC(=O)NC1CC2(CCN(C(C)C(C)C)CC2)c2ccccc21` (stereo not drawn) [compound 290]: on M1 muscarinic receptor, the “M1 Activity” value was “+ (activity was measured to be greater than 5.0 μM)” and the Emax lay within 25 to 100%. On M4 muscarinic receptor, the “M4 Activity” value was “+ (activity was measured to be greater than 5.0 μM)” and the Emax was 25 to 100%. On M2 muscarinic receptor, the “M2 Activity” value is on record as “+ (activity was measured to be greater than 5.0 μM)” and the Emax was below 25%. Further, on M3 muscarinic receptor, the “M3 Activity” value is “+ (activity was measured to be greater than 5.0 μM)” and the Emax was below 25%.
In the case of `CC(C)(C)CCN1CCC2(CC1)C[C@H](NC(=O)c1ccoc1)c1ccccc12` [compound 292], on M1 muscarinic receptor, the “M1 Activity” value is given as “+ (activity was measured to be greater than 5.0 μM)” and the Emax was below 25%. Further, on M4 muscarinic receptor, the “M4 Activity” value was “+ (activity was measured to be greater than 5.0 μM)” and the Emax is below 25%. Further, on M2 muscarinic receptor, the “M2 Activity” value was “+ (activity was measured to be greater than 5.0 μM)” and the Emax is below 25%. Besides, at M3 muscarinic receptor, the “M3 Activity” value is “+ (activity was measured to be greater than 5.0 μM)” and the Emax is below 25%.
Regarding `CC(C)CCN1CCC2(CC1)C[C@H](NC(=O)N(C)C)c1ccccc12` [compound 293], on M1 muscarinic receptor, the “M1 Activity” value is reported as “+ (activity was measured to be greater than 5.0 μM)” and the Emax was below 25%. On M4 muscarinic receptor, the “M4 Activity” value is reported as “+ (activity was measured to be greater than 5.0 μM)” and the Emax is below 25%. Further, at M2 muscarinic receptor, the “M2 Activity” value is “+ (activity was measured to be greater than 5.0 μM)” and the maximum response (Emax) was below 25%. Besides, at M3 muscarinic receptor, the “M3 Activity” value was “+ (activity was measured to be greater than 5.0 μM)” and the Emax is below 25%.
